Key:
Test in all cases: DHODH Inhibition Assay
[1] = molecular target: T1, Dihydroorotate dehydrogenase (quinone), mitochondrial (Plasmodium falciparum (isolate 3D7), UniProt Q08210)
T1 sequence (Q08210 whole entry): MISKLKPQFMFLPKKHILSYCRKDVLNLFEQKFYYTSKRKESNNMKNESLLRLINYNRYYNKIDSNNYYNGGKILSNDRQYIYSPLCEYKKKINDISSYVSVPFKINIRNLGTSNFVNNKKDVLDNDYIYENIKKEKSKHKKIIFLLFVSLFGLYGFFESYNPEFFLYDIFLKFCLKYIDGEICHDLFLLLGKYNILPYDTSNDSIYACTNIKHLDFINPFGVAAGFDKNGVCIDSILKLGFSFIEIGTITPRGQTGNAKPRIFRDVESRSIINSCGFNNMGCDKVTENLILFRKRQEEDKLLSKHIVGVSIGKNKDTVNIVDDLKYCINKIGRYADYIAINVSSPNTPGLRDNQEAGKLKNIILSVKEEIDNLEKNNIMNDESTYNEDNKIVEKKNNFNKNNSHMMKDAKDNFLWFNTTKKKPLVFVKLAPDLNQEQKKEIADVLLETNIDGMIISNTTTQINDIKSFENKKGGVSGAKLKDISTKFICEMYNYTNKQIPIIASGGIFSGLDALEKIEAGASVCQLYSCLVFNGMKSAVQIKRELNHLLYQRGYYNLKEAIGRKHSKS
Procedure: (§1) The assays were carried out by using a colorimetric DCIP method, which uses the colorimetric reagent 2, 6-dichlorophenolindophenol as the final electron acceptor. DCIP reduction is stoichiometrically equivalent to oxidation of dihydroorotate. Changes in absorbance were quantified on a plate reader and data were analyzed to measure the reduction of DCIP as a decrease in absorbance at 600 nm.

[2] = molecular target: T2, Dihydroorotate dehydrogenase (quinone), mitochondrial [100-517] (Plasmodium berghei (strain Anka), UniProt A0A509AEH5)
T2 construct: 100-517
T2 sequence (A0A509AEH5 whole entry): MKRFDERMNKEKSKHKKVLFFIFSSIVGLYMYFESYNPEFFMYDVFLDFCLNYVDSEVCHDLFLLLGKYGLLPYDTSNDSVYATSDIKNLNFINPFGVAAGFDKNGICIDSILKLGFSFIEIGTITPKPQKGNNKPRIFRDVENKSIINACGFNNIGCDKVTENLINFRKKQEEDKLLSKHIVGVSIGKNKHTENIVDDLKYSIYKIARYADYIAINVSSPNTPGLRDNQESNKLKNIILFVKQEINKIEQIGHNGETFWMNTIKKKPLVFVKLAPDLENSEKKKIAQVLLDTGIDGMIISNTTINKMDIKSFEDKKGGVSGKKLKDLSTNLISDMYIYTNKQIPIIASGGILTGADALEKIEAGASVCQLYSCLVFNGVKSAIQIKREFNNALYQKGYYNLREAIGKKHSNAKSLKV
Procedure: as §1

[3] = molecular target: T3, Dihydroorotate dehydrogenase (quinone), mitochondrial [30-395] (Homo sapiens, UniProt Q02127)
T3 construct: 30-395
T3 sequence (Q02127 30-395): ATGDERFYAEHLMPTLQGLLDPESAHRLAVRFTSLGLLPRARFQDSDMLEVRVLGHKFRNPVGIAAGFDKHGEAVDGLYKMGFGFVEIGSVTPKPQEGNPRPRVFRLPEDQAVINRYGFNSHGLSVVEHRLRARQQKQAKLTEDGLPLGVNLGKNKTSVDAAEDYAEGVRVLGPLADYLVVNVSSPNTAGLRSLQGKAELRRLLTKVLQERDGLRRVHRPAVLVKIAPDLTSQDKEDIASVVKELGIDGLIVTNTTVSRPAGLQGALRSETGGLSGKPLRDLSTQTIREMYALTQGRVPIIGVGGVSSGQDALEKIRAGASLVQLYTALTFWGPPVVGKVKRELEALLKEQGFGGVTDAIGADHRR
Procedure: as §1

Row | SMILES | IC50 ([1]; pH 8, 20 °C) | IC50 [2] | IC50 [1] | IC50 [3]
1 | Cc1cc(Nc2ccccc2C#N)n2ncnc2n1 [2-({5-methyl-[1,2,4]triazolo[1,5-a]pyrimidin-7-yl}amino)benzonitrile] | > 100 µM | > 100 µM | – | –
2 | Cc1cc(Nc2c(F)c(F)c(F)c(F)c2F)n2ncnc2n1 [5-methyl-N-(2,3,4,5,6-pentafluorophenyl)-[1,2,4]triazolo[1,5-a]pyrimidin-7-amine] | – | > 100 µM | > 100 µM | –
3 | Cc1cc(Nc2ccc(F)c(F)c2F)n2ncnc2n1 [5-methyl-N-(2,3,4-trifluorophenyl)-[1,2,4]triazolo[1,5-a]pyrimidin-7-amine] | – | > 100 µM | – | –
4 | Cc1cc(Nc2c(F)c(F)cc(F)c2F)n2ncnc2n1 [5-methyl-N-(2,3,5,6-tetrafluorophenyl)-[1,2,4]triazolo[1,5-a]pyrimidin-7-amine] | > 100 µM | > 100 µM | – | –
5 | Cc1cc(Nc2cc(F)c(F)cc2F)n2ncnc2n1 [5-methyl-N-(2,4,5-trifluorophenyl)-[1,2,4]triazolo[1,5-a]pyrimidin-7-amine] | – | > 100 µM | – | –
6 | Cc1cc(Nc2c(F)cc(F)cc2F)n2ncnc2n1 [5-methyl-N-(2,4,6-trifluorophenyl)-[1,2,4]triazolo[1,5-a]pyrimidin-7-amine] | > 100 µM | > 100 µM | – | –
7 | Cc1cc(Nc2ccccc2C)n2ncnc2n1 [5-methyl-N-(2-methylphenyl)-[1,2,4]triazolo[1,5-a]pyrimidin-7-amine] | > 100 µM | > 100 µM | – | –
8 | Cc1cccc(Nc2cc(C)nc3ncnn23)c1 [5-methyl-N-(3-methylphenyl)-[1,2,4]triazolo[1,5-a]pyrimidin-7-amine] | – | > 100 µM | – | –
9 | Cc1cc(Nc2ccccc2C(F)(F)F)n2ncnc2n1 [5-methyl-N-[2-(trifluoromethyl)phenyl]-[1,2,4]triazolo[1,5-a]pyrimidin-7-amine] | > 100 µM | > 100 µM | – | –
10 | Cc1cc(Nc2ccc3ccccc3c2)n2ncnc2n1 [JMC521864 Compund DSM1] | – | – | – | > 200 µM
11 | Cc1cc(Nc2ccccc2)n2ncnc2n1 [JMC521864 Compund DSM12] | > 200 µM | > 10 µM | – | > 200 µM
12 | Cc1cc(Nc2cccc(F)c2F)n2ncnc2n1 [N-(2,3-difluorophenyl)-5-methyl-[1,2,4]triazolo[1,5-a]pyrimidin-7-amine] | – | > 100 µM | – | –
13 | Cc1cc(Nc2cc(F)ccc2F)n2ncnc2n1 [N-(2,5-difluorophenyl)-5-methyl-[1,2,4]triazolo[1,5-a]pyrimidin-7-amine] | > 50 µM | > 100 µM | – | –
14 | Cc1cc(Nc2c(F)cccc2F)n2ncnc2n1 [N-(2,6-difluorophenyl)-5-methyl-[1,2,4]triazolo[1,5-a]pyrimidin-7-amine] | > 100 µM | > 100 µM | – | –
15 | Cc1cc(Nc2ccccc2Cl)n2ncnc2n1 [N-(2-chlorophenyl)-5-methyl-[1,2,4]triazolo[1,5-a]pyrimidin-7-amine] | > 100 µM | > 100 µM | – | –
16 | Cc1ccc(Nc2cc(C)nc3ncnn23)c(F)c1 [N-(2-fluoro-4-methylphenyl)-5-methyl-[1,2,4]triazolo[1,5-a]pyrimidin-7-amine] | – | > 100 µM | – | –
17 | Cc1cc(Nc2ccccc2F)n2ncnc2n1 [N-(2-fluorophenyl)-5-methyl-[1,2,4]triazolo[1,5-a]pyrimidin-7-amine] | > 100 µM | > 100 µM | – | –
18 | Cc1cc(Nc2cccc(F)c2)n2ncnc2n1 [N-(3-fluorophenyl)-5-methyl-[1,2,4]triazolo[1,5-a]pyrimidin-7-amine] | – | > 100 µM | – | –
19 | Cc1cc(Nc2ccc(Cc3ccccc3)cc2)n2ncnc2n1 [N-(4-benzylphenyl)-5-methyl-[1,2,4]triazolo[1,5-a]pyrimidin-7-amine] | – | > 100 µM | – | –
20 | Cc1cc(Nc2ccc(F)cc2)n2ncnc2n1 [N-(4-fluorophenyl)-5-methyl-[1,2,4]triazolo[1,5-a]pyrimidin-7-amine] | – | > 100 µM | – | –
21 | COc1ccc(Nc2cc(C)nc3ncnn23)cc1 [N-(4-methoxyphenyl)-5-methyl-[1,2,4]triazolo[1,5-a]pyrimidin-7-amine] | – | > 50 µM | – | –
22 | Cc1cc(Nc2ccc3cc4ccccc4cc3c2)n2ncnc2n1 [N-(anthracen-2-yl)-5-methyl-[1,2,4]triazolo[1,5-a]pyrimidin-7-amine] | – | 3.7 µM | – | > 200 µM
23 | Cc1cc(Nc2cc(C(F)(F)F)cc(C(F)(F)F)c2)n2ncnc2n1 [N-[3,5-bis(trifluoromethyl)phenyl]-5-methyl-[1,2,4]triazolo[1,5-a]pyrimidin-7-amine] | – | > 100 µM | > 100 µM | –
